Where two headings read alike, the source gives them in different places.
How the values were obtained:
Type in all cases: biochemical
[1] = target: 320 wild-type protein kinases (Homo sapiens, UniProt P23458); settings: JAK1 aa583-1154 wt, singlicate
From the text: (§1) Table S4. Profiling of two compounds at two concentrations against 320 wild-type protein kinases; singlicate measurement; Residual activities (% of control).

[2] = target: 320 wild-type protein kinases (Homo sapiens, UniProt P53671); settings: singlicate
Chain of 320 wild-type protein kinases (Homo sapiens, UniProt P53671) (P53671 whole entry): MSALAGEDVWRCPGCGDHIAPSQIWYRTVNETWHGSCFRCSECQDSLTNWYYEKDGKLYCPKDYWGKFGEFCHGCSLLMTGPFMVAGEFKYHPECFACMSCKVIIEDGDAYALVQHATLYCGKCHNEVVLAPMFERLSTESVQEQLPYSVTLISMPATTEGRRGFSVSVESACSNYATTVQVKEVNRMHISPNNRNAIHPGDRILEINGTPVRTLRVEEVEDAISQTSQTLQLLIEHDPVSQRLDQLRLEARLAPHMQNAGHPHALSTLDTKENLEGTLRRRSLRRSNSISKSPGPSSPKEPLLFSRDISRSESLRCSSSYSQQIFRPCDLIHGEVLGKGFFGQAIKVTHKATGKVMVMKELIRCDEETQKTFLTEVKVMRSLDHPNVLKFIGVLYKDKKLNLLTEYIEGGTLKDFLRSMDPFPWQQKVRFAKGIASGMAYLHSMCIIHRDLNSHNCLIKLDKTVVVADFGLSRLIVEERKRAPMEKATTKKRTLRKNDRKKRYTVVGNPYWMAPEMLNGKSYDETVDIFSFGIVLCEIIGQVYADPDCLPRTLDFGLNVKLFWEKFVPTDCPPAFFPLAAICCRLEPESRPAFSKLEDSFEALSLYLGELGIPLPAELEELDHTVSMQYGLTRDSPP
From the text: as §1

[3] = target: 320 wild-type protein kinases (Homo sapiens, UniProt P53779); settings: singlicate
Chain of 320 wild-type protein kinases (Homo sapiens, UniProt P53779) (P53779 whole entry): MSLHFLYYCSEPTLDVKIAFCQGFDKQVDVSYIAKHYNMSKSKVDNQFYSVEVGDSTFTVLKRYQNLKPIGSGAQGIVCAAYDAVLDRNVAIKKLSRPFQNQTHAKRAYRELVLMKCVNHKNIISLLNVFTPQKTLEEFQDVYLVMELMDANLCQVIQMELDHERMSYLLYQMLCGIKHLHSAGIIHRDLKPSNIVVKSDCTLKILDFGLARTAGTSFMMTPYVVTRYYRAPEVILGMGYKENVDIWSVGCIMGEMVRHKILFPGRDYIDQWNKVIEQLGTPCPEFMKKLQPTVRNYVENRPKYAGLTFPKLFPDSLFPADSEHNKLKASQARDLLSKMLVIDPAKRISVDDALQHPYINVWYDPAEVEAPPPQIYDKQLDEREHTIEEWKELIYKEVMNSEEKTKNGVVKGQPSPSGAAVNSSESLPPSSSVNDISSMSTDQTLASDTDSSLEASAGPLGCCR
From the text: as §1

[4] = target: 320 wild-type protein kinases (Homo sapiens, UniProt Q00534); settings: singlicate
Chain of 320 wild-type protein kinases (Homo sapiens, UniProt Q00534) (Q00534 whole entry): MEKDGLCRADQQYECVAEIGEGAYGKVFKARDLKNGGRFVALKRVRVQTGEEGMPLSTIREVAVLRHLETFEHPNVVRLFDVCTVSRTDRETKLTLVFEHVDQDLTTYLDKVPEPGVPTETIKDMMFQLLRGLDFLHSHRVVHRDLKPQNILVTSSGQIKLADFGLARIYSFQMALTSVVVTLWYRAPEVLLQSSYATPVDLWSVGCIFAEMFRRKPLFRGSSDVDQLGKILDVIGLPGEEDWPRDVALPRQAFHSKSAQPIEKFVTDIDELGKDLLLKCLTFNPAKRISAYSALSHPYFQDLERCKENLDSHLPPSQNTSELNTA
From the text: as §1

[5] = target: T1, 320 wild-type protein kinases (Homo sapiens, UniProt Q8TF76); settings: singlicate
T1 sequence (Q8TF76 1-798): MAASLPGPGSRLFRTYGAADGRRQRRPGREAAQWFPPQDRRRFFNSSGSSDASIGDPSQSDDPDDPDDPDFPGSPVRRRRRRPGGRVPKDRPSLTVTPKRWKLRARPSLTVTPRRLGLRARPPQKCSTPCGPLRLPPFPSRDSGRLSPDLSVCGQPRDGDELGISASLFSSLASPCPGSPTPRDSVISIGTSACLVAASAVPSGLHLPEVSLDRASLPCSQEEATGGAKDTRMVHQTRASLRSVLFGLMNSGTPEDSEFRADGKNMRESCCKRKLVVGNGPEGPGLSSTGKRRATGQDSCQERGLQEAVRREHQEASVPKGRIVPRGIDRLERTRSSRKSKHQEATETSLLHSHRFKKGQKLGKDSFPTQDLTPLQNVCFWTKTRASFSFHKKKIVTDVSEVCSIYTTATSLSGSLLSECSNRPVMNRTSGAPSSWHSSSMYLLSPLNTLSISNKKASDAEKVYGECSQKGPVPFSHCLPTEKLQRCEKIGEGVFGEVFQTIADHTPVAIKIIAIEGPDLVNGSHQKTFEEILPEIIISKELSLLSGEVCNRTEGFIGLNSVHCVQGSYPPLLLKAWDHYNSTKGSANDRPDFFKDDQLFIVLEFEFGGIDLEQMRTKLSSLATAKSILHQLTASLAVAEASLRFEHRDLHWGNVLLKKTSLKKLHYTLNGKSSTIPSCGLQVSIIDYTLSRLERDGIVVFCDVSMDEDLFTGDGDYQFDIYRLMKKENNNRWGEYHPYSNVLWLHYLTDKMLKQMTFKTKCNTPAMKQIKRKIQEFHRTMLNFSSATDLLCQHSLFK
From the text: as §1

[6] = target: 320 wild-type protein kinases (Homo sapiens, UniProt Q96RG2); settings: PASK, singlicate
Chain of 320 wild-type protein kinases (Homo sapiens, UniProt Q96RG2) (Q96RG2 whole entry): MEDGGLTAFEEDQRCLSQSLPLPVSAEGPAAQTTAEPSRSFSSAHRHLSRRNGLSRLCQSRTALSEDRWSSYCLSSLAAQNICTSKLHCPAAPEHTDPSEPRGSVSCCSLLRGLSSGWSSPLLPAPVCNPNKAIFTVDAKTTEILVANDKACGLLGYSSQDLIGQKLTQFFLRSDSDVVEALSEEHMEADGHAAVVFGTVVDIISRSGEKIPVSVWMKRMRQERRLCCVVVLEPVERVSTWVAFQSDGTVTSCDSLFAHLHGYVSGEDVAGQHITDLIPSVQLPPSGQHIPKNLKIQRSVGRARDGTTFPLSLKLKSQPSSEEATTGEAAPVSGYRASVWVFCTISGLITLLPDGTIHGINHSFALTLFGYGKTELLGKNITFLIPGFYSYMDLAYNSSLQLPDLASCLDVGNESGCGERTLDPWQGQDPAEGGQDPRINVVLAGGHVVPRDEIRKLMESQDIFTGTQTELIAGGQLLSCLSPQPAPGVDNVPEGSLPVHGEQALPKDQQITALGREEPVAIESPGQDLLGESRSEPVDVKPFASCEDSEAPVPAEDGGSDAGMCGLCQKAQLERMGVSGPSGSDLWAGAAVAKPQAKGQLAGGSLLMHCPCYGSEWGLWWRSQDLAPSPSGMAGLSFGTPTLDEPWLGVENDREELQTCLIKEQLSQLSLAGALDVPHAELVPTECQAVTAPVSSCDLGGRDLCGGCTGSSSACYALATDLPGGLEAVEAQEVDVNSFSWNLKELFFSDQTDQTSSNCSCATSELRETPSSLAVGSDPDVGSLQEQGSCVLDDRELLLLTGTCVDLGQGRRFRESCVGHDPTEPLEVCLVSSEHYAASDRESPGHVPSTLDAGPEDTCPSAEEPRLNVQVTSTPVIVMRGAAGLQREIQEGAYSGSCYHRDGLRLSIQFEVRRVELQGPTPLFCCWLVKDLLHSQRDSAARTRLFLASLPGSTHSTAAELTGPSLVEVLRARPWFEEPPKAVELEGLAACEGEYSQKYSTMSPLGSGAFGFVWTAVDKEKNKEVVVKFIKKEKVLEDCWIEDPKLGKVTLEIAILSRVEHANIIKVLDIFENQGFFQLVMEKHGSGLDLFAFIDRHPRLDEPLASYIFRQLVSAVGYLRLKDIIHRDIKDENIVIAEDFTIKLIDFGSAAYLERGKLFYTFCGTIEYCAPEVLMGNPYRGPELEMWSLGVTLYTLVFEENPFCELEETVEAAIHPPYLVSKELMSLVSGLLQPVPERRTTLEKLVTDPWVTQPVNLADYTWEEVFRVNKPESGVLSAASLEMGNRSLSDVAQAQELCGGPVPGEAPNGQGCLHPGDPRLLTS
From the text: as §1

[7] = target: T2, 320 wild-type protein kinases (Homo sapiens, UniProt Q9BZL6); settings: singlicate
T2 sequence (Q9BZL6 1-878): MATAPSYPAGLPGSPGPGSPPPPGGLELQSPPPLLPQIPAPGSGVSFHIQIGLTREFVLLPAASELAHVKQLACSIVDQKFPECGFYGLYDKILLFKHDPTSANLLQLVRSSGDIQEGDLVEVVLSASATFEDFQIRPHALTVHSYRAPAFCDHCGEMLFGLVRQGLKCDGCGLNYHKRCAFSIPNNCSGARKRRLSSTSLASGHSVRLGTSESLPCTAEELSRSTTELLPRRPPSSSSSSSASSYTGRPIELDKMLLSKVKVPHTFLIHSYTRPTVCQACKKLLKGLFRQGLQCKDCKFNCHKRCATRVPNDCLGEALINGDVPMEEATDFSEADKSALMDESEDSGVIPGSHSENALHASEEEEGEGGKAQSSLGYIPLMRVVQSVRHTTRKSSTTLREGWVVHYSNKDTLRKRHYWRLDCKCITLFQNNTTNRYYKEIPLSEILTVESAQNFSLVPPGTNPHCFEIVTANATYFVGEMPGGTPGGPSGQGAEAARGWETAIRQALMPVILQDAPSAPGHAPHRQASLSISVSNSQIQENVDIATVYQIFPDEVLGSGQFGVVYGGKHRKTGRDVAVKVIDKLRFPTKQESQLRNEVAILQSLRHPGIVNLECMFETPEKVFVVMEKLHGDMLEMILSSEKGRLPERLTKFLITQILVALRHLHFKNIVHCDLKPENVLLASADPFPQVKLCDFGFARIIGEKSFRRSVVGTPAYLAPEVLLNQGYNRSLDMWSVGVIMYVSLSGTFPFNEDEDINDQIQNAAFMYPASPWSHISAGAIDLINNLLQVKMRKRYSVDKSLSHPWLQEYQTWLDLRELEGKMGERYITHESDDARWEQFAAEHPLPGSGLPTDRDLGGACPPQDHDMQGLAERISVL
From the text: as §1

Chain of 320 wild-type protein kinases (Homo sapiens, UniProt P23458) (P23458 whole entry, the tested form may be a part): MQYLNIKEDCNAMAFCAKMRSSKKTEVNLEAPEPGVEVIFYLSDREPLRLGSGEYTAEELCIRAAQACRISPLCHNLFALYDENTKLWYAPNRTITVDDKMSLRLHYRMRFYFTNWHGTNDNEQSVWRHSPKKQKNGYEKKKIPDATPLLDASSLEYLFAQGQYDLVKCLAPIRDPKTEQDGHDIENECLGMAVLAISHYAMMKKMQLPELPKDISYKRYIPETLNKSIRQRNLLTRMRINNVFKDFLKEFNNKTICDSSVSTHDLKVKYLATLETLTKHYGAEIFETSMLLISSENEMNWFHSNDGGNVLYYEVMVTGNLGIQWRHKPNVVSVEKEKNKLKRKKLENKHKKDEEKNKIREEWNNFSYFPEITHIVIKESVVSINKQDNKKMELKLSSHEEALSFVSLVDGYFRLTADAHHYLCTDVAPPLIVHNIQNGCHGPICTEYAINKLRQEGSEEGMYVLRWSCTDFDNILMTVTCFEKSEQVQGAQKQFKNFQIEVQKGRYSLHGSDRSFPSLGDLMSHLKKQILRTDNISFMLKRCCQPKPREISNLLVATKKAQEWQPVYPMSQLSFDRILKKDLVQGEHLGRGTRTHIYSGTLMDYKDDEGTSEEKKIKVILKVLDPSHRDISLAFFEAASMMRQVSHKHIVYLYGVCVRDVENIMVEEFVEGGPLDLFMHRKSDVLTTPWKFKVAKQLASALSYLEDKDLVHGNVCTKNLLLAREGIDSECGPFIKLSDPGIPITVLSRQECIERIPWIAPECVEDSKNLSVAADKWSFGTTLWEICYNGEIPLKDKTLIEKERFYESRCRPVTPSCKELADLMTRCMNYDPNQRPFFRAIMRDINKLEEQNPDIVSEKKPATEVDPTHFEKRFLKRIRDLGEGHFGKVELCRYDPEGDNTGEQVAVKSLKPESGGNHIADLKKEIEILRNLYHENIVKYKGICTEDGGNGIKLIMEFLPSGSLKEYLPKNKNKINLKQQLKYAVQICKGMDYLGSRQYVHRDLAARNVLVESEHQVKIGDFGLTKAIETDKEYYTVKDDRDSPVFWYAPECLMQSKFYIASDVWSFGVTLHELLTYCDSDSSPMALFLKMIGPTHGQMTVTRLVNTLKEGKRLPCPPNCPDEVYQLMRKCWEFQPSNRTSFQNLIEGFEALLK

SMILES	Residual activity ([1]; 1.0E-06 M)	Residual activity ([1]; 1.0E-07 M)	Residual activity ([2]; LIMK2, 1.0E-06 M)	Residual activity ([2]; LIMK2, 1.0E-07 M)	Residual activity ([3]; JNK3, 1.0E-06 M)	Residual activity ([3]; JNK3, 1.0E-07 M)	Residual activity ([4]; CDK6/CycD1, 1.0E-06 M)	Residual activity ([4]; CDK6/CycD1, 1.0E-07 M)	Residual activity ([4]; CDK6/CycD3, 1.0E-06 M)	Residual activity ([4]; CDK6/CycD3, 1.0E-07 M)	Residual activity ([5]; GSG2, 1.0E-06 M)	Residual activity ([5]; GSG2, 1.0E-07 M)	Residual activity ([6]; 1.0E-06 M)	Residual activity ([6]; 1.0E-07 M)	Residual activity ([7]; PRKD2, 1.0E-06 M)	Residual activity ([7]; PRKD2, 1.0E-07 M)
C#Cc1cc(Nc2ncnc3cc(I)ccc23)ccc1Cl [Compound 41]	90 % of control	98 % of control	100 % of control	92 % of control	99 % of control	90 % of control	98 % of control	92 % of control	103 % of control	102 % of control	112 % of control	113 % of control	101 % of control	102 % of control	84 % of control	97 % of control
C#Cc1cc(Nc2ncnc3cc(OC)c(OC)cc23)ccc1Cl [Compound 45]	102 % of control	111 % of control	89 % of control	94 % of control	89 % of control	92 % of control	86 % of control	96 % of control	105 % of control	95 % of control	109 % of control	115 % of control	93 % of control	98 % of control	73 % of control	80 % of control
